Measured values reported in patent publication US5527781A, “4-O-(aminoglycosyl)- or 4,6-di-O-(aminoglycosyl)-2,5-dideoxy-5,5-difluorostreptamine derivatives” (Zaidan Hojin Biseibutsu Kagaku Kenkyu Kai, priority 1990, dated 1996).
In brackets after ≈: the same amount, converted by molar mass. Read-outs that look alike come from different tables or passages of the source.

Key:
[1] = tested on: Escherichia coli K-12 ML 1629; test: microbe, parasite or virus in culture; format: cell-based; details: K12ML1629
Mycobacterium 607 = test: MIC, standard serial dilution method; format: cell-based; details: Mueller-Hinton agar, 37° C
[2] = tested on: Escherichia coli K-12 LA 290 R55; test: microbe, parasite or virus in culture; format: cell-based; details: K12LA290R55
[3] = tested on: Pseudomonas aeruginosa GN 315; test: MIC, standard serial dilution method; format: cell-based; details: GN315; Pseudomonas aeruginosa GN 315; resistance mechanism AAC(6'); Mueller-Hinton agar, 37° C; read-out: MIC
[4] = tested on: Corynebacterium bovis 1810; test: MIC, standard serial dilution method; format: cell-based; details: Mueller-Hinton agar, 37° C
[5] = tested on: Klebsiella pneumoniae 22#3038; test: MIC, standard serial dilution method; format: cell-based; details: resistance mechanism APH(3')-II, ANT(2"), Mueller-Hinton agar, 37° C
[6] = tested on: Pseudomonas aeruginosa A3; test: MIC, standard serial dilution method; format: cell-based; details: Mueller-Hinton agar, 37° C
[7] = tested on: Staphylococcus aureus Ap01; test: MIC, standard serial dilution method; format: cell-based; details: resistance mechanism ANT(4'), Mueller-Hinton agar, 37° C
Escherichia coli K-12 R5 = test: microbe, parasite or virus in culture; format: cell-based; details: K12R5
Escherichia coli JR225 = test: microbe, parasite or virus in culture; format: cell-based; details: resistance mechanism AAC(3), Mueller-Hinton agar, 37° C
Bacillus subtilis PCI219 = test: MIC, standard serial dilution method; format: cell-based; details: Mueller-Hinton agar, 37° C
[8] = tested on: Staphylococcus aureus 209P; test: MIC, standard serial dilution method; format: cell-based; details: Mueller-Hinton agar, 37° C
Proteus rettgeri GN 311 = test: MIC, standard serial dilution method; format: cell-based; details: Providencia rettgeri, GN311
Escherichia coli K-12 = test: MIC, standard serial dilution method; format: cell-based; details: K12; Escherichia coli K-12; Mueller-Hinton agar, 37° C; read-out: MIC
in vivo = details: mouse, iv, pH 7
Text: Further, in order to estimate acute toxicity of the compound of the general formula (I) according to this invention, some examples of the compounds of this invention were independently dissolved in water to prepare aqueous solutions (as adjusted to pH 7 by addition of hydrochloric acid). […] The tested compounds of this invention are expressed by the same abbreviations as in Table 1. […] The comparative compounds as tested are also expressed by the same abbreviations as in Table 1.

Providencia sp. Pv 16 = test: MIC, standard serial dilution method; format: cell-based; details: SP.PV16, resistance mechanism AAC(2'), Mueller-Hinton agar, 37° C
[9] = tested on: Escherichia coli JR66/W677; test: microbe, parasite or virus in culture; format: cell-based; details: resistance mechanism APH(3')-II, ANT(2"), Mueller-Hinton agar, 37° C
Serratia marcescens = test: MIC, standard serial dilution method; format: cell-based; details: Mueller-Hinton agar, 37° C
[10] = Escherichia coli K-12 ML 1629, resistance mechanism APH(3')-I, Mueller-Hinton agar, 37° C, read-out: MIC
[11] = Escherichia coli K-12 LA 290 R55, resistance mechanism ANT(2"), Mueller-Hinton agar, 37° C
[12] = Escherichia coli K-12 R5, resistance mechanism AAC(6'), Mueller-Hinton agar, 37° C
[13] = Proteus rettgeri GN 311, Mueller-Hinton agar, 37° C, read-out: MIC

SMILES	MIC [1, 10] [µg/mL]	MIC (Mycobacterium 607) [µg/mL]	MIC [2, 11] [µg/mL]	MIC [3] [µg/mL]	MIC [4] [µg/mL]	MIC [5] [µg/mL]	MIC [6] [µg/mL]	MIC [7] [µg/mL]	MIC (Escherichia coli JR225) [µg/mL]	MIC (Bacillus subtilis PCI219) [µg/mL]	MIC [8] [µg/mL]	MIC (Escherichia coli K-12) [µg/mL]	LD50 (in vivo) [mg/kg]	MIC (Providencia sp. Pv 16) [µg/mL]	MIC [9] [µg/mL]	MIC (Serratia marcescens) [µg/mL]	MIC ([1]; Escherichia coli) [µg/mL]	MIC (Escherichia coli K-12 R5; [12]) [µg/mL]	MIC (Proteus rettgeri GN 311; [13]) [µg/mL]	further results
CN[C@@H]1[C@@H](O)[C@@H](O[C@@H]2[C@@H](O)[C@H](O[C@H]3O[C@H]([C@@H](C)NC)CC[C@H]3N)[C@@H](N)C[C@H]2N)OC[C@]1(C)O [Genta-C1, gentamicin C1, reference compound]	0.39 (≈ 0.817 µM)	3.12 (≈ 6.53 µM)	12.5 (≈ 26.2 µM)	6.25 (≈ 13.1 µM)	0.39 (≈ 0.817 µM)	12.5 (≈ 26.2 µM)	0.78 (≈ 1.63 µM)	0.78 (≈ 1.63 µM)	25 (≈ 52.3 µM)	< 0.2	< 0.2	0.2 (≈ 0.419 µM)	~70	25 (≈ 52.3 µM)	12.5 (≈ 26.2 µM)	0.78 (≈ 1.63 µM)				MIC (Escherichia coli K-12 R5; Escherichia coli): 0.78 µg/mL (≈ 1.63 µM); MIC (Proteus rettgeri GN 311): 0.78 µg/mL (≈ 1.63 µM)
CCN[C@@H]1C[C@H](N)[C@@H](O[C@H]2OC(CN)=CC[C@H]2N)C(F)(F)[C@H]1O[C@H]1OC[C@](C)(O)[C@H](NC)[C@H]1O [5FF-Netilmicin, 5-deoxy-5,5-difluoronetilmicin]		1.56 (≈ 3.15 µM)	0.39 (≈ 0.787 µM)	> 100	1.56 (≈ 3.15 µM)	1.56 (≈ 3.15 µM)	1.56 (≈ 3.15 µM)	12.5 (≈ 25.2 µM)	1.56 (≈ 3.15 µM)	0.39 (≈ 0.787 µM)	3.12 (≈ 6.3 µM)	< 0.2	47	12.5 (≈ 25.2 µM)	0.78 (≈ 1.57 µM)	6.25 (≈ 12.6 µM)	0.78 (≈ 1.57 µM)	50 (≈ 101 µM)	1.56 (≈ 3.15 µM)	
NC[C@@H]1CC[C@@H](N)[C@@H](O[C@@H]2[C@@H](N)C[C@@H](N)[C@H](O[C@H]3O[C@H](CO)[C@@H](O)[C@H](N)[C@H]3O)C2(F)F)O1 [Compound 5FF-DKB, 5,3',4'-trideoxy-5,5-difluorokanamycin B]		1.56 (≈ 3.31 µM)	1.56 (≈ 3.31 µM)	> 100	1.56 (≈ 3.31 µM)	1.56 (≈ 3.31 µM)	0.39 (≈ 0.827 µM)	3.12 (≈ 6.62 µM)	3.12 (≈ 6.62 µM)	0.39 (≈ 0.827 µM)	0.78 (≈ 1.65 µM)	0.39 (≈ 0.827 µM)	250	12.5 (≈ 26.5 µM)	1.56 (≈ 3.31 µM)	12.5 (≈ 26.5 µM)	0.78 (≈ 1.65 µM)	100 (≈ 212 µM)	0.39 (≈ 0.827 µM)	
NCC[C@H](O)C(=O)N[C@@H]1C[C@H](N)[C@@H](O[C@H]2O[C@H](CN)CC[C@H]2N)C(F)(F)[C@H]1O[C@H]1O[C@H](CO)[C@@H](O)[C@H](N)[C@H]1O [Compound 5FF-DKB-AHB, 1-N-[(S)-4-amino-2-hydroxybutyryl]-5,3',4'-trideoxy-5,5-difluorokanamycin B]	0.39 (≈ 0.681 µM)	0.78 (≈ 1.36 µM)	< 0.2	12.5 (≈ 21.8 µM)	< 0.2	0.78 (≈ 1.36 µM)	0.78 (≈ 1.36 µM)	3.12 (≈ 5.45 µM)	< 0.2	0.39 (≈ 0.681 µM)	0.39 (≈ 0.681 µM)	< 0.2	~200	0.78 (≈ 1.36 µM)	0.39 (≈ 0.681 µM)	1.56 (≈ 2.72 µM)		3.12 (≈ 5.45 µM)	0.39 (≈ 0.681 µM)	
NCC[C@H](O)C(=O)N[C@@H]1C[C@H](N)[C@@H](O[C@H]2O[C@H](CN)[C@@H](O)C[C@H]2N)C(F)(F)[C@H]1O[C@H]1O[C@H](CO)[C@@H](O)[C@H](N)[C@H]1O [Compound 5FF-TOB-AHB, 1-N-[(S)-4-amino-2-hydroxybutyryl]-5-deoxy-5,5-difluorotobramycin]	0.39 (≈ 0.663 µM)	0.39 (≈ 0.663 µM)	< 0.2	6.25 (≈ 10.6 µM)	< 0.2	0.78 (≈ 1.33 µM)	0.78 (≈ 1.33 µM)	3.12 (≈ 5.3 µM)	< 0.2	< 0.2	0.39 (≈ 0.663 µM)	< 0.2	> 300	0.78 (≈ 1.33 µM)	0.39 (≈ 0.663 µM)	1.56 (≈ 2.65 µM)		3.12 (≈ 5.3 µM)	0.39 (≈ 0.663 µM)	
NC[C@H]1O[C@H](O[C@@H]2[C@@H](N)C[C@@H](N)[C@H](O[C@H]3O[C@H](CO)[C@@H](O)[C@H](N)[C@H]3O)C2(F)F)[C@H](N)C[C@@H]1O [Compound 5FF-TOB, 5-deoxy-5,5-difluorotobramycin]		0.39 (≈ 0.8 µM)		100 (≈ 205 µM)	1.56 (≈ 3.2 µM)	0.78 (≈ 1.6 µM)	< 0.2	25 (≈ 51.3 µM)	0.39 (≈ 0.8 µM)	0.39 (≈ 0.8 µM)	0.39 (≈ 0.8 µM)	0.39 (≈ 0.8 µM)	260	12.5 (≈ 25.6 µM)	1.56 (≈ 3.2 µM)	3.12 (≈ 6.4 µM)	0.78 (≈ 1.6 µM)	25 (≈ 51.3 µM)	< 0.2	MIC ([2]; Escherichia coli): 0.78 µg/mL (≈ 1.6 µM)
